# Measured values as given in publication PMC10218704, “A Novel Blood–Brain Barrier-Penetrating and Vascular-Targeting Chimeric Peptide Inhibits Glioma Angiogenesis” (International Journal of Molecular Sciences, 2023).
# Tests used:
# HUVECs [1] = assay: Cell proliferation assay (MTT); type: cell-based, human; conditions: 48 h, VEGF-A165 30 ng/mL, n = 3
# Method: The anti-proliferative effect was evaluated by the MTT assay.
# Briefly, HUVECs were seeded into 96-well plates (5 × 10^3 cells/well) and allowed to attach overnight. […] Then, 20 µL of MTT solution was added to each well and further cultured for 4 h under dark conditions. After removing the medium, 150 µL of DMSO was added to dissolve formazan crystals. The 96-well plates were shaken at a low speed for 10 min. The absorbance was measured at 490 nm using a Microplate Reader (Bio-Rad 680, Hercules, CA, USA).
# HUVECs [2] = assay: Tube formation assay on Matrigel; type: cell-based, human; conditions: 160 μmol/L, VEGF-A165 30 ng/mL, 6 h, n = 3
# Method: Matrigel was added to 96-well plates with 60 min of incubation at 37 °C for solidification. […] The tubular structures were observed under an inverted microscope and the total branching lengths were calculated by the ImageJ V 1.8.0 software.
# HUVECs [3] = assay: Hoechst 33,258 staining (apoptosis); type: cell-based, human; conditions: 320 μmol/L; 24 h
# Method: HUVECs were seeded into 6-well culture plates (3 × 10^5 cells/well). […] After discarding the supernatant and washing with cold PBS, the cells were fixed in 4% paraformaldehyde and stained with Hoechst 33,258 for 10 min. Then, the cells were washed with cold PBS and observed using an inverted fluorescence microscope.
# VEGFR-2 = assay: Western blot, phosphorylation of VEGFR-2; type: cell-based, human; conditions: 320 μmol/L; 90 min; VEGF-A165 30 ng/mL; HUVECs; n = 3
# Method: (§1) For Western blotting analysis, HUVECs were seeded into 6-well culture plates at 3 × 10^5 cells/well and incubated overnight. […] Two control groups (F-12K medium in the absence or presence of VEGF-A165) were set. The cells were washed with cold PBS and lysed with lysis buffer (protease and phosphatase inhibitors) on the ice for 30 min, and then centrifuged at 4 °C for 15 min at 14,000 r/min. The supernatant was collected, and its total protein concentration was determined by the BCA protein assay kit. Equal amounts of proteins were separated by 10% SDS-PAGE gels and transferred to polyvinylidene difluoride (PVDF) membranes. After blocking with 5% non-fat milk for 1 h, the membranes were incubated with specific antibodies at 4 °C overnight. Then, the membranes were washed with TBST (Tris-Buffered Saline with 0.1% Tween 20) and incubated with horseradish peroxidase (HRP)-conjugated secondary antibody for 1 h at room temperature. The proteins on the membranes were visualized with enhanced chemiluminescence agents.
# ERK1/2 = assay: Western blot, phosphorylation of ERK1/2; type: cell-based, human; conditions: 320 μmol/L, 90 min, VEGF-A165 30 ng/mL, HUVECs, vs control, AT7, TAT, n = 3
# Method: as §1
# SRC = assay: Western blot, phosphorylation of SRC; type: cell-based, human; conditions: 320 μmol/L, 90 min, VEGF-A165 30 ng/mL, HUVECs, vs control, AT7, TAT, n = 3
# Method: as §1
# [4] = tested on: VEGFR-2 and the above kinases (PLC-γ, ERK1/2, SRC, AKT, FAK); assay: Western blot, total expression levels; type: cell-based, human; conditions: 320 μmol/L; 90 min; VEGF-A165 30 ng/mL; HUVECs; n = 3
# Method: as §1
# red blood cells = assay: Hemolysis assay; conditions: 2.5–640 μmol/L; 37 °C, 1 h; 540 nm; mouse red blood cells; n = 3
# Method: The fresh blood of mice was centrifuged at 2000 r/min for 10 min, and the upper layer of serum was discarded, then mixed with normal saline and centrifuged at 2000 r/min for 10 min, repeated three times, and the supernatant was removed to obtain the lower layer of red blood cells. Then, 1 mL of red blood cells was diluted to 50 mL with normal saline. […] The samples were incubated at 37 °C for 1 h, centrifuged at 2000 r/min for 10 min, and photographed. Light absorption of samples was measured at 540 nm on a microplate reader.
# Cell hemolysis rate (%) = (OD experimental group − negative control group)/(OD positive control group − negative control group) × 100%.
# [5] = tested on: intracranial U87-mCherry-luc glioma; assay: Glioma distribution and vascular targeting in vivo (FITC fluorescence, CD31 immunostaining); parameters: species or system nude mice; conditions: 1 h
# Excerpt: The orthotopic U87-mCherry-luc glioma-bearing nude mice model was firstly established. Female nude mice were anesthetized by isoflurane and fixed on a ventricle stereotaxic instrument. U87-mCherry-luc cells were collected after trypsin digestion and then injected into the right striatum of the brain of nude mice. On the 4th day after the surgery, the bioluminescence of the glioma tissue was detected by the IVIS kinetic imaging system (Lumina II; Caliper, MA, USA). The mice were randomly divided into four groups according to the bioluminescence intensity (n = 3). FITC-AT7, FITC-TAT, and FITC-TAT-AT7 (30 mg/Kg) were injected into mice via the tail vein on day 8. The control group was only injected with normal saline. After 1 h, the mice were sacrificed, and the brains were collected and fixed with 4% paraformaldehyde for 24 h. Then, the fixed brains were dehydrated by 15% and 30% sucrose, successively, frozen with O.C.T. embedding reagent, and then cut into frozen brain tissue slices. Then, sections of slices were incubated with rabbit anti-murine CD31 antibody, followed by treatment with Cy5.5-labeled goat anti-rabbit IgG secondary antibody. The slices were further stained with DAPI for 5 min and observed using a confocal microscope.
# [6] = Body weight and physiological status of glioma-bearing nude mice; type: in vivo; conditions: 20 mg/kg/day i.v., 11 days
# Method: (§2) The orthotopic U87-mCherry-luc glioma-bearing nude mice were randomly assigned to 6 groups (n = 5) according to the bioluminescence intensity of glioma measured on day 4. […] The bioluminescence intensity was measured on days 4, 7, 11, and 14, respectively. Nude mice were weighed daily. On day 15, the mice were sacrificed, and the glioma-bearing brains were harvested. The brain tissues were fixed with 4.0% paraformaldehyde, embedded in paraffin, and cut into slices. The TUNEL staining and CD31 immunohistochemical staining were conducted according to standard histological procedures.
# [7] = tested on: glioma blood vessels (CD31); assay: CD31 immunohistochemical staining of glioma tissue (blood vessel density); type: in vivo, nude mice; conditions: 20 mg/kg/day i.v., 11 days; tissue at day 15; n = 3
# Method: as §2
# [8] = FITC-labeled peptide 30 mg/kg, tail vein, n = 3
smiles,measurement,setting,value
CC(C)C[C@H](NC(=O)[C@H](Cc1c[nH]c2ccccc12)NC(=O)[C@@H](NC(=O)[C@H](C)NC(=O)[C@H](CS)NC(=O)[C@H](CCCNC(=N)N)NC(=O)[C@H](CCCNC(=N)N)NC(=O)[C@H](CCCNC(=N)N)NC(=O)[C@H](CCC(N)=O)NC(=O)[C@H](CCCNC(=N)N)NC(=O)[C@H](CCCNC(=N)N)NC(=O)[C@H](CCCCN)NC(=O)[C@H](CCCCN)NC(=O)[C@@H](N)CCCNC(=N)N)[C@@H](C)O)C(=O)N1CCC[C@H]1C(=O)N1CCC[C@H]1C(=O)N[C@@H](CCCNC(=N)N)C(=O)O [TAT-AT7],inhibition rate on HUVECs' proliferation,"HUVECs [1]; 320 μmol/L, MTT, 490 nm",more than 50%
same,inhibition of HUVECs' proliferation,"HUVECs [1]; 20-320 μmol/L, MTT",significantly inhibit proliferation of HUVECs in a concentration-dependent manner
same,"inhibition rate compared with AT7, TAT, TAT+AT7",HUVECs [1]; concentration higher than 40 μmol/L,"significantly higher than that of the AT7, TAT, and TAT+AT7 groups"
same,formation of tubular structures,HUVECs [2],significantly inhibit the formation of tubular structures in HUVECs
same,total branch length of the tubular structure,"HUVECs [2]; vs AT7, TAT, and TAT+AT7 groups",significantly reduced
same,"number of apoptotic cells (Hoechst 33,258)",HUVECs [3],"significantly increased compared to the control, AT7, TAT, and TAT+AT7 groups"
same,phosphorylation level of VEGFR-2,VEGFR-2,reduce the phosphorylation level of VEGFR-2
same,phosphorylation level of ERK1/2,ERK1/2,significantly inhibited the phosphorylation level
same,phosphorylation level of SRC,SRC,significantly inhibited the phosphorylation level
same,total expression levels of VEGFR-2 and the above kinases,[4],no significant effect on the total expression levels
same,hemolysis,red blood cells,did not cause obvious hemolysis
same,hemolysis rate,red blood cells,lower than 5%
same,co-localization with glioma blood vessels (CD31),[5]; [8],obviously co-localized with glioma blood vessels
same,green (FITC) fluorescence intensity in glioma tissue,[5]; [8],significantly higher than that in the AT7 and TAT groups
same,accumulation and distribution in the glioma region,"[5]; FITC-labeled peptide, intravenous, discussion",higher accumulation and deeper distribution in the glioma region after intravenous injection compared to TAT and TAT+AT7
same,rate of weight loss,[6],slower than that in the normal saline group
same,toxicity and safety in nude mice,"[6]; body weight and physiological status, 14th day",less toxicity and better safety for nude mice
same,blood vessel density (CD31),[7],significantly lower than that in the other groups
